Measurements as given in patent publication US20050250837A1, “Use of C-Raf inhibitors for the treatment of neurodegenerative diseases” (priority 2002, published 2005).

What was measured:
[1] = target: c-fms (Homo sapiens, UniProt P07333); settings: Lackey et al., 2000; cited from earlier work
[2] = tested on: c-jun; assay: c-jun phosphorylation (Ser63) and total c-jun, Western blot; assay type: cell-based, rat; settings: LK + 1 uM GW5074, 1 and 3 hours
Protocol: In granule neurons, phosphorylation of c-jun occurs within 1 hour of LK treatment (Ham et al., 1995; Watson et al. 1998). […] The same blot was reprobed with an antibody against total c-jun (lower panel).
For whole-cell lysates, the culture medium was discarded, the neurons washed twice with ice-cold phosphate-buffered saline (PBS), and lysed in lysis buffer (1% Triton, 20 mM Tris-HCl (pH 7.5), 150 mM NaCl, 1 mM Na2EDTA, 1 mM EGTA, 2.5 mM sodium pyrophosphate, 1 mM beta-glycerophosphate, 1 mM Na3VO4, 1 μg/ml leupeptin and 1× protease inhibitor mixture). Protein concentrations were measured using a Bradford protein assay kit (Bio-Rad), and equivalent amounts of protein were mixed with 6×SDS-PAGE sample buffer. Following heating at 95° C. for 5 min, proteins were subjected to SDS-polyacrylamide gel electrophoresis and transferred electrophoretically to polyvinylidene difluoride membrane (PVDF; Bio Rad). After staining with Ponceau S to verify uniformity of protein loads/transfer, the membranes were analyzed for immunoreactivity. Incubation with primary antibodies was performed overnight at 4° C. and with secondary antibodies for 1 h at room temperature. Immunoreactivity was developed by enhanced chemiluminescence (ECL; Amersham) and visualized by autoradiography. All antibodies were from Cell Signaling.

[3] = tested on: GSK3β; assay: GSK3β phosphorylation in neuronal cultures, Western blot; assay type: cell-based, rat; settings: LK + 1 uM GW5074
[4] = tested on: Akt; assay: Akt phosphorylation (Ser473) in neuronal cultures, Western blot; assay type: cell-based, rat
Protocol: The best-studied anti-apoptotic pathway in neurons is the PI-3 kinase—Akt signaling pathway (D'Mello et al., 1997; Dudek et al., 1997; Miller et al, 1997a). IGF-1, a potent survival-promotic factor for granule neurons mediates its effect by activating the PI-3 kinase-Akt pathway (Datta et al., 1997; Dudek et al., 1997; D'Mello et al., 1998). […] Switching cerebellar granule neurons from serum-containing HK medium in which they are cultured and allowed to mature, to serum-free LK or HK medium, causes a rapid downregulation of Akt phosphorylation and activity, which can be prevented by IGF-1 (Kumari et al., 2001). […] The same blot was reprobed with an antibody against phospho-Gskβ. Also loaded on the gel were lysates from untreated cultures (maintained in medium containing serum and high K+) and a culture treated for 1 hour with 25 ng/ml IGF-1. […] GSK3βis a proapoptotic molecule that is activated during apoptosis in many neuronal and normeuronal systems. Under survival promoting conditions GSK3β is kept inactivated by phosphorylation, a modification that can be induced by Akt. […] Another proapoptotic molecule that is phosphorylated and inactivated by Akt is the transcription factor, Forkhead (Linseman et al., 2002). […] Switching of neurons to LK medium leads to a rapid downregulation of Akt activity within 2 hours.
For whole-cell lysates, the culture medium was discarded, the neurons washed twice with ice-cold phosphate-buffered saline (PBS), and lysed in lysis buffer (1% Triton, 20 mM Tris-HCl (pH 7.5), 150 mM NaCl, 1 mM Na2EDTA, 1 mM EGTA, 2.5 mM sodium pyrophosphate, 1 mM beta-glycerophosphate, 1 mM Na3VO4, 1 μg/ml leupeptin and 1× protease inhibitor mixture). Protein concentrations were measured using a Bradford protein assay kit (Bio-Rad), and equivalent amounts of protein were mixed with 6×SDS-PAGE sample buffer. […] After staining with Ponceau S to verify uniformity of protein loads/transfer, the membranes were analyzed for immunoreactivity. […]

[5] = target: p38 MAP kinase (Homo sapiens, UniProt Q16539); settings: Lackey et al., 2000; cited from earlier work
[6] = tested on: cerebellar granule neurons; assay: Apoptosis of neurons infected with adenoviral dominant-negative Akt; assay type: cell-based, rat; settings: LK + 1 uM GW5074 or 25 ng/ml IGF-1
Source text: Five day old neuronal cultures were infected with adenoviral vectors expressing either GFP or hemagluttinin (HA)-tagged dominant-negative Akt. […] Infected neurons were detected by positive staining for GFP or HA by immunocytochemistry. The proportion of apoptotic cells (condensed or fragmented nuclei) as a percentage of total infected neurons was quantified following DAPI-staining.
DnAkt and control recombinant adenovirus expressing green fluorescent protein (Ad-GFP) are propagated in HEK293T cells and purified by cesium chloride density gradient centrifugation. After quantification of titer, virus at an MOI of 10 are used to infect granule neuron cultures 5 days after plating by direct addition to the medium. Treatments are performed 24 hours after addition of virus.

[7] = target: CDK5/p35 (Homo sapiens, UniProt Q00535); assay: In vitro kinase assay, purified kinase (Upstate Kinase Profiling); assay type: biochemical; also: ATP 10 µM
Source text: (§1) (Lackey et al., 2000). […] A number of reports have implicated JNKs in the promotion of neuronal apoptosis both in vivo and in cell culture systems (Coffey et al., 2002). Although all three JNK proteins are expressed in neurons, the phosphorylation of c-jun is believed to be mediated by JNK2 or JNK3 (Bruckner et al., 2001; Bruckner and Estus, 2002; Coffey et al., 2002). […] In apoptotic neurons, JNK activation is mediated primarily by MKK7 (Eilers et al., 1998; Trotter et al., 2002).
(§2) In general, in vitro kinase assays were performed using purified kinase and synthetic substrates under standard conditions using the Kinase Profiling service of Upstate Biotechnology. Briefly, for each assay 5-10 mU of purified kinase was used. […] Kinase activity was quantified by measuring ^33P incorporation by spotting an aliquot on P30 filters, washing in 50 mM phosphoric acid and scintillation counting. The buffer composition for C-Raf, JNK1, JNK2, JNK3, MEK1, MKK6, MKK7 was 50 mM Tris pH7.5, 0.1 mM EGTA, 10 mM Mg acetate and [γ-^33P-ATP]. The peptide substrates used were as follows: For C-Raf, 0.66 mg/ml MBP; for cdks, 0.1 mg/ml histone H1; for JNKs, 3 uM ATF2; for MEK1, 1 uM MAPK2; for MKK6, 1 uM of SAPK2a and for MKK7, 2 uM JNK1α.

[8] = target: CDK6/cyclinD3 (Homo sapiens, UniProt Q00534); assay: as above; assay type: biochemical; also: ATP 10 µM
Source text: as §1, §2

[9] = target: CDK2/cyclinE (Homo sapiens, UniProt P24941); assay: as above; assay type: biochemical; also: ATP 10 µM
Source text: as §1, §2

[10] = target: CDK1/cyclinB (Homo sapiens, UniProt P06493); assay: as above; assay type: biochemical; also: ATP 10 µM
Source text: as §1, §2

[11] = target: MEK1 (Homo sapiens, UniProt Q02750); assay: as above; assay type: biochemical; also: ATP 10 µM
Source text: as §1, §2

[12] = target: CDK2/cyclinA (Homo sapiens, UniProt P24941); assay: as above; assay type: biochemical; also: ATP 10 µM
Source text: as §1, §2

[13] = target: C-Raf (Homo sapiens, UniProt P04049); assay: as above; assay type: biochemical
[14] = target: c-src (Homo sapiens, UniProt P12931); settings: Lackey et al., 2000; cited from earlier work
c-src, sequence (P12931 whole entry, species assumed): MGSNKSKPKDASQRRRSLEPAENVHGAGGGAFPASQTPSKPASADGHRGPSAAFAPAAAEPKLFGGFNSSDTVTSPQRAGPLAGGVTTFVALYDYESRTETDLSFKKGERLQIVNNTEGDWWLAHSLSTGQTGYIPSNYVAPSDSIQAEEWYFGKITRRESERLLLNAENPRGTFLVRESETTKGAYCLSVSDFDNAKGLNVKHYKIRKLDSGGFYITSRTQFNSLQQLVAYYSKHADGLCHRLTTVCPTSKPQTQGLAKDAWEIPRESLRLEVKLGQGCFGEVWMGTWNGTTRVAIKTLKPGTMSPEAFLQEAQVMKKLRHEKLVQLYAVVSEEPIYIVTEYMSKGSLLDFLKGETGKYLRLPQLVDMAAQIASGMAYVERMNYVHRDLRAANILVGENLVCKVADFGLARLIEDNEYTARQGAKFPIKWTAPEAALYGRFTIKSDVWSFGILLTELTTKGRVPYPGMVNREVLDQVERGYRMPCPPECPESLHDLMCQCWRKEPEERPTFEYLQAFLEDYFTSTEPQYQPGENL

CDK6/cyclinD3, sequence (Q00534 whole entry, species assumed): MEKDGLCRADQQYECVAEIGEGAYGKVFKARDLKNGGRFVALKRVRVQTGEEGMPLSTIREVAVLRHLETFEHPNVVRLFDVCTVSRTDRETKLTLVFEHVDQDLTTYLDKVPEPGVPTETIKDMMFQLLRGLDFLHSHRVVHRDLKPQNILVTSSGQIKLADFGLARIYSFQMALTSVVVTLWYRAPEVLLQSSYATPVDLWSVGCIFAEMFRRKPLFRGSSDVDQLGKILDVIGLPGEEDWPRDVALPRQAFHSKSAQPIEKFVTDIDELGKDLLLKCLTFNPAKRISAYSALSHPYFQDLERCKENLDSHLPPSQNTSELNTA
CDK6/cyclinD3, sequence (P30281 whole entry partner, species assumed): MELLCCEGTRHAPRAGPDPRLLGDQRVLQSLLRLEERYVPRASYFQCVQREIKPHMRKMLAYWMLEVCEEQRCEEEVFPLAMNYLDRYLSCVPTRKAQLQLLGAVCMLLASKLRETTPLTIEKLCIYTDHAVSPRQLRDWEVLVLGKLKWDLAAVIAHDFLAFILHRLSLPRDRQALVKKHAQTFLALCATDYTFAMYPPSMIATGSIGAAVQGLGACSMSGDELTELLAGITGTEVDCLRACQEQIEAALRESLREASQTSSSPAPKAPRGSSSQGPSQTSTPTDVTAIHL
MEK1, sequence (Q02750 whole entry, species assumed): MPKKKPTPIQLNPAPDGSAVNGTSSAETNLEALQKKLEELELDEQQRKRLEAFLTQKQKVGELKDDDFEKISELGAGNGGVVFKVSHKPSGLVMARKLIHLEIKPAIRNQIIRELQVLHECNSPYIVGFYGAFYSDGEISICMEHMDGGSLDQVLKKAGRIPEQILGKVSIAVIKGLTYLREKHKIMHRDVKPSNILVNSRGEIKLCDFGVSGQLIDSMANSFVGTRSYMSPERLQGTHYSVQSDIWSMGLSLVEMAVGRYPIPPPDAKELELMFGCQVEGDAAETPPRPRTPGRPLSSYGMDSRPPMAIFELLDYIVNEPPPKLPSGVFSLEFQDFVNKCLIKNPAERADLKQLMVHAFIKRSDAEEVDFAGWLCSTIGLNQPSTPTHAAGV
p38 MAP kinase, sequence (Q16539 whole entry): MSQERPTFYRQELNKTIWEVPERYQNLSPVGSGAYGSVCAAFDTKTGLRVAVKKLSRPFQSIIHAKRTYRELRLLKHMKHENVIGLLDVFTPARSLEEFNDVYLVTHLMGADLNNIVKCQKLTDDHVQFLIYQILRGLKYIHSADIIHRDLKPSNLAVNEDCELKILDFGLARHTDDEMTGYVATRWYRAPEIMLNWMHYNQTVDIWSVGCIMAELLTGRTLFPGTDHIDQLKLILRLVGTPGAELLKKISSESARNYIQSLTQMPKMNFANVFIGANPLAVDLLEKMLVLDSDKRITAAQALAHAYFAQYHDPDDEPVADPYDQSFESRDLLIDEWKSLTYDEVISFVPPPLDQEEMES
C-Raf, sequence (P04049 whole entry, species assumed): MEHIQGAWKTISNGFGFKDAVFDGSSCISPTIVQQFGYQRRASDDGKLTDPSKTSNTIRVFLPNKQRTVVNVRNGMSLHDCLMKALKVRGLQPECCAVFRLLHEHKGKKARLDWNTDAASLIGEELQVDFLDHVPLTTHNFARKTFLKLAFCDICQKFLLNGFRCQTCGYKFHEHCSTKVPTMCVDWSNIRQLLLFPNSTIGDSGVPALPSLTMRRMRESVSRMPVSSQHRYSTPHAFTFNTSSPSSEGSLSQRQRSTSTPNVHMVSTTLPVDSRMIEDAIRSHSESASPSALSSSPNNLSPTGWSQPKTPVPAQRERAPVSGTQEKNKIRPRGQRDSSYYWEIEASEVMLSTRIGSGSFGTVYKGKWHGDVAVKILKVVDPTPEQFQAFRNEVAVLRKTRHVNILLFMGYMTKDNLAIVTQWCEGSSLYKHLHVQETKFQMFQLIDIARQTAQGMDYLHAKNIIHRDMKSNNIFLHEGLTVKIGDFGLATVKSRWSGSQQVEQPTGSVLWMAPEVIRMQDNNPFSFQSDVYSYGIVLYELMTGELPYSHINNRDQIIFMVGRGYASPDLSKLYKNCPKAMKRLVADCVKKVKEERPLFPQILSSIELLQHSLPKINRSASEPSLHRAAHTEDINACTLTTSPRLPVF
CDK1/cyclinB, sequence (P06493 whole entry, species assumed): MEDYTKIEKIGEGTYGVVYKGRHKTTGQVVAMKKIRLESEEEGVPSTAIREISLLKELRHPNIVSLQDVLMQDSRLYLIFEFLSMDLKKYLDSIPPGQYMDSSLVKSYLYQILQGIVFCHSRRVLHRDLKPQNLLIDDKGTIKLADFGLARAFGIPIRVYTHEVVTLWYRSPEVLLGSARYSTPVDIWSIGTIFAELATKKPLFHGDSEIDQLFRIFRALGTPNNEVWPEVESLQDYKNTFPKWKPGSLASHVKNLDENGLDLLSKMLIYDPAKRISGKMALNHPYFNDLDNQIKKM
CDK1/cyclinB, sequence (P14635 whole entry partner, species assumed): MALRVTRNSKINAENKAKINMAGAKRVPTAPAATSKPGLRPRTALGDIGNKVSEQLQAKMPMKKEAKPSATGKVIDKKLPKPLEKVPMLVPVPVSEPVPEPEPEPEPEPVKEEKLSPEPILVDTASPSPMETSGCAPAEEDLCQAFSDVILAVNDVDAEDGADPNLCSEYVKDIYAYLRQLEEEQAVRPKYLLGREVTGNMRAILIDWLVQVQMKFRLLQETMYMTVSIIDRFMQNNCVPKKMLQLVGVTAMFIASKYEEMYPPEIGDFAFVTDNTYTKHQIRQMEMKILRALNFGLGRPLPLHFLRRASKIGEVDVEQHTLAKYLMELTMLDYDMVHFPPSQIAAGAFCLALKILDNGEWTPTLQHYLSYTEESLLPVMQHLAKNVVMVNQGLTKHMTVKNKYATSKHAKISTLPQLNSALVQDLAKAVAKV
CDK5/p35, sequence (Q00535 whole entry, species assumed): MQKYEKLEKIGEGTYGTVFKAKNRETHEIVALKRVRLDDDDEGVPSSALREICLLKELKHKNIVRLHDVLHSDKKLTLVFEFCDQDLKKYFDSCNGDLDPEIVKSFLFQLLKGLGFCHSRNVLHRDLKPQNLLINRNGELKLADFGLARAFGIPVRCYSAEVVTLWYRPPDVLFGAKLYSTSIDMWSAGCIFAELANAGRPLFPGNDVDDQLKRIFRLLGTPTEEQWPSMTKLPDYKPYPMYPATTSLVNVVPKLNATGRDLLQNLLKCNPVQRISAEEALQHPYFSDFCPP
CDK5/p35, sequence (Q15078 whole entry partner, species assumed): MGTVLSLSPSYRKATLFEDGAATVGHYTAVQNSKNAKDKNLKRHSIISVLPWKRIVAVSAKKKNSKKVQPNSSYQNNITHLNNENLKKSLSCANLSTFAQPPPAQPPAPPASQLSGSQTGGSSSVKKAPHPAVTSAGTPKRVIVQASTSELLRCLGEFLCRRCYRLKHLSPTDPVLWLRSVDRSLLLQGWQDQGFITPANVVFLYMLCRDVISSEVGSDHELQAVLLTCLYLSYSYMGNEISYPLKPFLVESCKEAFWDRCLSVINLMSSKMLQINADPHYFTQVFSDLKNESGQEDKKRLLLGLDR
c-fms, sequence (P07333 20-972): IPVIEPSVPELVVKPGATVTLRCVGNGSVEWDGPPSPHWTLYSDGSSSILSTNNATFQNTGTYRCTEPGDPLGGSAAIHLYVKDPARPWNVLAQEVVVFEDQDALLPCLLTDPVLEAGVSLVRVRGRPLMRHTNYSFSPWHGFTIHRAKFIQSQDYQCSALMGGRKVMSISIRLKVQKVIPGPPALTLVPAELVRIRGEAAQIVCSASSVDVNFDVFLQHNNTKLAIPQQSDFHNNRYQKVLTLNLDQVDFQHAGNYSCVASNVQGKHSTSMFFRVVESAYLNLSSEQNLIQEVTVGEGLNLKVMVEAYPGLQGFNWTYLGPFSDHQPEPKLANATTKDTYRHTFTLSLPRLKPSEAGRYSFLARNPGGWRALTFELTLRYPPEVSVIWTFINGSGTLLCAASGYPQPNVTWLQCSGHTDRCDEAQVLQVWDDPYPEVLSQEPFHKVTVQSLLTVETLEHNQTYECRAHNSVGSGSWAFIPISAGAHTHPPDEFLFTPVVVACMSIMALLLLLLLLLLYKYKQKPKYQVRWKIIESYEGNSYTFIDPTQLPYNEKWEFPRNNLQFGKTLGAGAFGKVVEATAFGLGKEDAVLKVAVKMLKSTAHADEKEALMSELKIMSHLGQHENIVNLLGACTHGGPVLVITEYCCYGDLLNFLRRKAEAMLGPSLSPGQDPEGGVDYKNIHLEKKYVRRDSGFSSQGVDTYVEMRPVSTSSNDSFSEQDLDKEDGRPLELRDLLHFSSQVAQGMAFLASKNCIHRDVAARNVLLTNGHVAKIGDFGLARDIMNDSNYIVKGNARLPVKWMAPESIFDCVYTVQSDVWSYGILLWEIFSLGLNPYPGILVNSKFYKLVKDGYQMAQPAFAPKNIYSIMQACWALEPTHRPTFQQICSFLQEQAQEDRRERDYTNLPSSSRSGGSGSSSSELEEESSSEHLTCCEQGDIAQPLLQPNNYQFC

SMILES: O=C1Nc2ccc(I)cc2C1=Cc1cc(Br)c(O)c(Br)c1 [GW5074, 5-Iodo-3-[(3,5-dibromo-4-hydroxyphenyl)methylene]-2-indolinone]
- effect on activity of c-fms [1]: no effect
- LK-induced c-jun phosphorylation and synthesis [2]: prevents LK-induced c-jun phosphorylation and its increased synthesis
- activation of GSK3β after switch to LK [3]: prevents the activation of GSK3
- Akt phosphorylation after LK treatment ([4]; LK + 1 uM GW5074, 1 and 3 hours): delays the downregulation of Akt phosphorylation
- de novo Akt activation after downregulation in LK ([4]; added to cultures already switched to LK): does not lead to Akt activation
- effect on activity of p38 MAP kinase [5]: no effect
- effect of dominant-negative Akt on survival promotion [6]: no effect on the ability of GW5074 to maintain neuronal survival
- activity at 1 µM [7]: 94 ± 2%
- activity at 1 µM [8]: 98 ± 1%
- activity at 1 µM [9]: 100 ± 5%
- activity at 1 µM [10]: 90 ± 12%
- activity at 1 µM [11]: 94 ± 4%
- activity at 1 µM [12]: 99%
- activity at 1 µM [13]: 3%
- effect on activity of c-src [14]: no effect
